# Reference: the supplement of paper PMC10307832
# What was measured:
# Assay in all cases: relative viability (nuclei count vs DMSO), 5 days (fraction); higher = more cells survive
# [1] = compound: CC1=CC(=C(N1C2=CC=C(C=C2)Cl)C)C(=O)CN3CCCCC3 [IU1-47] + Nc1ncn([C@H]2C[C@H](O)[C@@H](CO)O2)c(=O)n1 [Decitabine] (partner 2 µM)
# In short: (§1)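 Medians of duplicate plates are given as relative viability. That measure is the nuclei count in treated wells divided by the count in vehicle wells. Counts were taken on 4× images of lung cancer cell lines in 1536-well plates, 5 days after pin-tool dosing the day after seeding with one drug alone or a fixed anchor-drug dose plus five library-drug doses (not always all listed) in √10 steps.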
# [2] = compound: CC1=CC(=C(N1C2=CC=C(C=C2)Cl)C)C(=O)CN3CCCCC3 [IU1-47] + CC(=O)Nc1cccc(-n2c(=O)n(C3CC3)c(=O)c3c(Nc4ccc(I)cc4F)n(C)c(=O)c(C)c32)c1 [Trametinib] (partner 0.02 µM)
# In short: as §1
# [3] = compound: CC1=CC(=C(N1C2=CC=C(C=C2)Cl)C)C(=O)CN3CCCCC3 [IU1-47] + N=C(N)NC(=N)NCCc1ccccc1 [Phenformin] (partner 250 µM)
# In short: as §1
# [4] = compound: Cc1nc(C(=O)NCC(=O)O)c(O)c2ccc(Oc3ccccc3)cc12 [FG-4592] + CC1(C)CCC(c2ccc(Cl)cc2)=C(CN2CCN(c3ccc(C(=O)NS(=O)(=O)c4ccc(N[C@H](CCN5CCOCC5)CSc5ccccc5)c(S(=O)(=O)C(F)(F)F)c4)cc3)CC2)C1 [Navitoclax] (partner 0.5 µM)
# In short: as §1
Cell Line,relative viability ([1]; first compound 0.08 µM),relative viability ([1]; first compound 0.253 µM),relative viability ([1]; first compound 0.8 µM),relative viability ([1]; first compound 2.53 µM),relative viability ([1]; first compound 8 µM),relative viability ([2]; first compound 0.08 µM),relative viability ([2]; first compound 0.253 µM),relative viability ([2]; first compound 0.8 µM),relative viability ([2]; first compound 2.53 µM),relative viability ([2]; first compound 8 µM),relative viability ([3]; first compound 0.08 µM),relative viability ([3]; first compound 0.253 µM),relative viability ([3]; first compound 0.8 µM),relative viability ([3]; first compound 2.53 µM),relative viability ([3]; first compound 8 µM),relative viability ([4]; first compound 0.08 µM),relative viability ([4]; first compound 0.253 µM),relative viability ([4]; first compound 0.8 µM),relative viability ([4]; first compound 2.53 µM),relative viability ([4]; first compound 8 µM)
NCI-H2170,0.516,0.529,0.498,0.482,0.555,0.991,0.913,1,0.9,0.638,0.48,0.435,0.389,0.414,0.403,0.708,0.593,0.691,0.485,0.322
NCI-H2347,0.662,0.663,0.609,0.615,0.581,0.258,0.282,0.3,0.304,0.302,0.387,0.413,0.336,0.496,0.345,0.862,–,0.648,0.804,0.897
NCI-H1993,0.602,0.641,0.628,0.687,0.537,0.545,0.613,0.564,0.471,0.0511,0.488,0.493,0.516,0.506,0.498,0.946,0.907,0.696,1.09,0.898
NCI-H322M,0.776,0.807,0.645,0.683,0.652,0.547,0.487,0.503,0.464,0.55,0.825,0.768,0.789,0.809,0.633,1.3,1.21,1.08,1,1.19
NCI-H838,0.423,0.451,0.471,0.501,0.449,0.521,0.472,0.581,0.501,0.53,0.559,0.578,0.549,0.562,0.318,1.27,1.09,1.09,1.2,1.11
HARA,0.494,–,0.524,0.489,0.486,0.802,–,0.929,0.628,0.774,0.594,0.478,0.567,–,0.537,1.15,1.09,–,1.13,1.15
NCI-H2087,0.317,0.256,0.311,0.228,0.23,0.172,0.187,0.203,0.195,0.229,0.469,0.503,0.548,–,0.441,1.01,0.946,1.04,0.98,1.03
NCI-H1437,0.573,0.513,0.658,0.63,0.547,0.48,0.485,0.556,0.391,0.496,0.337,0.272,0.25,0.341,0.297,1.07,1.09,1.16,1.01,0.852
